The results in this text go back to ChEMBL document CHEMBL5528080, “Discovery of RORγ Allosteric Fluorescent Probes and Their Application: Fluorescence Polarization, Screening, and Bioimaging” (J Med Chem, 2024).

What all share (experiment): biochemical
The target of test [1] is T1, Nuclear receptor ROR-gamma (Homo sapiens, UniProt P51449).
T1 sequence (P51449 whole entry): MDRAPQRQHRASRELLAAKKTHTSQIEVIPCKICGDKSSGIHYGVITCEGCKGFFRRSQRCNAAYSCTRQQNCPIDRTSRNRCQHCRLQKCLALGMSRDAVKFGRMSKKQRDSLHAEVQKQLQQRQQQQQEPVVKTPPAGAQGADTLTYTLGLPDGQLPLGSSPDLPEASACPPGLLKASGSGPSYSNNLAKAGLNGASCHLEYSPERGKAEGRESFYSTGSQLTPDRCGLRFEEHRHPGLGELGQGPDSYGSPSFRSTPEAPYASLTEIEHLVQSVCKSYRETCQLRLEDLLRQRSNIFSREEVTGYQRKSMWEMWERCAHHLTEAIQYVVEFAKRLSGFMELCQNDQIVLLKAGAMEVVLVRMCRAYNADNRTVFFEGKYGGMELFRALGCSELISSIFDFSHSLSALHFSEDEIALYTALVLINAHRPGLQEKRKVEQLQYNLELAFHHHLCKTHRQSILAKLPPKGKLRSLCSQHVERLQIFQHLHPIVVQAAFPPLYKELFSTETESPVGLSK
Description: Allosteric inhibition of N-terminal his6-tagged human recombinant RORgamma LBD (261 to 518 residues) expressed in Sf9 insect cells assessed as inhibition constant incubated for 30 mins by fluorescence polarization assay

Test [2] concerns the target T1, Nuclear receptor ROR-gamma. The source holds these as a separate data set.
Description: Allosteric inhibition of N-terminal his6-tagged human recombinant RORgamma LBD (261 to 518 residues) expressed in Sf9 insect cells incubated for 30 mins by fluorescence polarization assay
Test [3] concerns the target T1, Nuclear receptor ROR-gamma. This is another data set of the same source.
Description: Binding affinity to N-terminal his6-tagged human recombinant RORgamma LBD (261 to 518 residues) expressed in Sf9 insect cells assessed as dissociation constant incubated for 30 mins by fluorescence polarization assay
The target of test [4] is T1, Nuclear receptor ROR-gamma. The source holds these as a separate data set.
Description: Binding affinity to N-terminal his6-tagged human recombinant RORgamma LBD (261 to 518 residues) expressed in Sf9 insect cells assessed as dissociation constant by SPR analysis

Broadly, the Ki is a measure of affinity in units of concentration, obtained from inhibition or displacement. The low end stands for a stronger hold on the target, the high end for a looser hold on the target. For orientation: IC50 means the concentration that inhibits the measured activity by half. What is called Kd is the free concentration of one partner at which half of the binding sites on the other are occupied at equilibrium, for simple one-to-one binding. A lower Kd goes with a tighter complex.

On to `O=C(O)c1ccc(-n2cc(C(=O)c3ccccc3Cl)c3ccccc32)s1`, for which, in test [1], the affinity corresponds to a Ki of 7.2 µM. Also, the IC50 in test [2] is 13.5 µM. The matching figures for `O=C(O)c1ccc(-n2cc(C(=O)c3ccc(Cl)cc3)c3ccccc32)s1`: 21.3 µM and 39.9 µM. Compound `Cc1csc(-n2cc(C(=O)c3c(Cl)cccc3Cl)c3ccccc32)c1` displayed an IC50 in test [2] greater than 1000 µM.

As for `Cc1cccc(C(=O)c2cn(-c3ccc(C(=O)O)s3)c3ccccc23)c1`, in test [1], affinity was put at a Ki of 79.8 µM. The compound also came in with a concentration for half-maximal inhibition (IC50) in test [2] of 149 µM. The matching figures for `Cc1cc(-n2cc(C(=O)c3c(Cl)cccc3Cl)c3ccccc32)sc1C(=O)O`: 1.7 µM and 3.1 µM. On to `Cc1ccccc1C(=O)c1cn(-c2ccc(C(=O)O)s2)c2ccccc12`, for which, in test [1], the affinity, expressed as Ki, was 17.6 µM. 33 µM corresponded to half-maximal inhibition in test [2] (IC50). For the compound `O=C(O)c1ccc(-c2nn(C(=O)c3c(Cl)cccc3C(F)(F)F)c3cc(C(=O)NCCOCCOCCNC(=S)Nc4ccc5c(c4)C(=O)OC54c5ccc(O)cc5Oc5cc(O)ccc54)ccc23)cc1`, the Kd in test [3] came out at 0.0517 µM; in test [4] it was 0.28 µM. In test [1], `Cc1ccc(C(=O)c2cn(-c3ccc(C(=O)O)s3)c3ccccc23)cc1` yielded a Ki of 42.7 µM. Besides, in test [2], the IC50 was 79.9 µM. In the case of `O=C(O)c1ccc(-n2cc(C(=O)c3cccc(Cl)c3)c3ccccc32)s1`, in test [1], the Ki was determined as 15.2 µM. This compound also showed an IC50 in test [2] of 28.5 µM. For `O=C(O)c1ccc(-n2cc(C(=O)c3c(Cl)cccc3Cl)c3ccccc32)s1`, in that order: 0.51 µM and 0.95 µM. Compound `O=C(O)c1ccc(-n2cc(C(=O)c3c(Cl)cccc3C(F)(F)F)c3ccccc32)s1` returned a Ki in test [1] of 0.91 µM. For the same compound, the IC50 in test [2] amounted to 1.7 µM. For `O=C(O)c1ccc(-n2cc(C(=O)c3c(Cl)cccc3Cl)c3ccccc32)cc1`, in that order: 0.005 µM and 0.009 µM.

In the case of `O=C(O)c1ccc(-c2nn(C(=O)c3ccccc3)c3ccccc23)cc1`, the affinity in test [1] corresponds to a Ki of 1.11 µM. Turning to `O=C(O)c1ccc(-n2cc(C(=O)c3ccccc3)c3ccccc32)s1`, affinity in test [1] was put at a Ki of 102 µM. This compound also yielded an IC50 in test [2] of 19.3 µM.
